From patent publication US20110223177A1, “TREATMENT OF FIBROTIC EYE DISORDERS” (UNIVERSITY OF EAST ANGLIA, priority 2008, published 2011)
Entries after “also recorded” stand apart in the source; their conditions may differ.

Tests used:
human lens capsular bags = assay: Human lens capsular bag model; assay type: cell-based
Procedure: FIG. 7. The effect of MLCK inhibition (using 15 μM ML7) on cell coverage of the previously cell-free posterior capsule of human capsular bags following 7 days of culture. The data represent Mean SEM (n=4). * Indicates a significant difference from control group. N.B. Control conditions are EMEM supplemented with 5% serum and 10 ng/ml TGFβ.
FIG. 8. High (top row) and low power (bottom row) phase-contrast micrographs showing cells growing on the lens capsular bag treated with 10 ng/mL TGF-β in the presence or absence of ML7 (15 μM). Contraction (wrinkles) of the lens capsular bag is evident when treated with 10 ng/ml TGF-β alone.
The model first described by Liu, C. S. C., et al., (Invest. Ophthalmol. Vis. Sci. (1996), 37, pages, 906-914) was employed. Following removal of corneo-scleral discs for transplantation purposes, human donor eyes from the East Anglian Eye Banks, UK (obtained with full ethical approval—COREC form approved 1 Dec. 2004. Ref04/Q0102/57) were used to perform a sham cataract operation. The resulting capsular bag was then dissected free of the zonules and secured on a sterile 35 mm polymethylmethacrylate (PMMA) petri dish. […] Coverage and matrix modification of the previously cell-free posterior capsule were captured on a daily basis using low-power phase microscopy and quantified using analysis software. […]

[1] = tested on: cells growing on the lens capsular bag; assay: Immunocytochemical analysis of capsular bags at end point; assay type: cell-based, human; conditions: 15 μM ML7, 10 ng/ml TGF-β
Procedure: FIG. 9. […] The fields of view represent 448×342 μm.
Preparations were fixed for 30 minutes in 4% formaldehyde in PBS and permeabilised in PBS containing 0.5% Triton-X100, also for 30 minutes. Anti-CPI-17 and Anti-alpha smooth muscle actin was diluted 1:100 and applied for 60 min at 35° C., followed by washing. CPI-17 was visualised with ALEXA 488-conjugated secondary antibodies (Molecular Probes, Leiden, Netherlands). The F-actin cytoskeleton was stained with Texas Red-X-phalloidin and chromatin using DAPI (Molecular Probes, Leiden, Netherlands) for 10 min at room temperature. The stained preparations were again washed extensively, floated onto microscope slides and mounted in Hydromount mounting medium (National Diagnostics, Hull, UK). Images were viewed with a Zeiss epifluorescence microscope and Axiovision software.
From the work on the cell line we chose to test ML7 i.e. the MLCK inhibitor. These studies were carried out on separate donors using a match paired format; one capsular bag was maintained in TGF-β and serum supplemented medium, while the other was maintained in TGF-β and serum supplemented medium plus 15 μM ML7. There is great consistency in cell behaviour from one eye to another from an individual donor; therefore the effects observed are due to the presence or absence of the inhibitor. […] This growth inhibition could be useful in the treatment of PCO as growth across the capsule is a critical component in the development of the condition, but this is a retardation of cell growth rather than ablation. […] In addition, we have carried out immunocytochemical analysis of the capsular bags at end point (FIG. 9).

[2] = tested on: phosphorylated (active) myosin in FHL124 cells; assay: Western blot detection of phosphorylated (active) myosin in response to TGF-β; assay type: cell-based, human; conditions: 15 μM ML7, 10 ng/ml TGF-β2, FHL124 cells
Procedure: FIG. 2. Western blot detection of phosphorylated (active) myosin in response to 10 ng/ml TGF-β2 (Sigma, Poole, Dorset, UK). The data presented are pooled from 3 separate experiment. Each left hand bar of the bar pairs reports the result in the absence of ML7 (indicated as “−15 uM ML-7” in the key) and the right hand bar reports the result in the presence of 15 μM ML7 (indicated as “+15 uM ML-7” in the key). Beta actin was used as a control for equivalent protein amounts. * Indicates a significant difference from untreated control group (p<0.05; student's t-test).
FHL-124 cells were washed with 1.5 ml PBS then lysed on ice in 0.5 mls Daubs lysis buffer; (50 mM HEPES pH 7.5, 150 mM NaCl, 1% Triton X-100, 1 mM EDTA, 10% glycerol, 10 mM sodium pyrophosphate, 2 mM sodium orthovanadate, 10 mM sodium fluoride, 250 mls ddH2O, 1 mM phenylmethylsulfonylfluoride and 10 μg/ml aprotinin. Lysates were pre-cleared by centrifuging at 13000 rpm at 4° C. for 10 min, and the protein content of the soluble fraction will be assayed by Bicinchoninic (BCA) protein assay. Equal amounts of protein per sample were loaded onto 10% SDS-PAGE gels for electrophoresis and transferred onto a polyvinylidene fluoride (PVDF) membrane with a BIO-RAD Trans-Blot semi-dry Transfer Cell. […] Gels were scanned using an HP scanjet 5470c and band intensity determined with Kodak 1D 3.5 software.

[3] = tested on: human lens epithelial cell line FHL124; assay: FHL124 patch growth/contraction assay; assay type: cell-based; conditions: FHL 124 patches
Procedure: FIG. 3. TGF-β-induced matrix contraction is suppressed by the MLCK inhibitor ML7. FHL 124 cells were seeded to form patches and maintained in the following conditions: EMEM (Eagle's minimal essential medium—standard culture medium) supplemented with 5% FCS (fetal calf serum—control)±15 μM ML7 (myosin light chain kinase inhibitor) (Calbiochem) for a 72 hour experimental period. In the graph, each left hand bar of the bar pairs reports the result in the absence of ML7 (indicated as “−15 uM ML-7” in the key) and the right hand bar reports the result in the presence of 15 μM ML7 (indicated as “[…]” in the key). Please note that numerical data can be obtained from these patches, which can be scrutinized by statistical analysis.
FIG. 4. TGF-β-induced matrix contraction is promoted by the MLCP inhibitor tautomycin (Calbiochem). FHL 124 cells were seeded to form patches and maintained in the following conditions: EMEM (standard culture medium) supplemented with 5% FCS (control)±50 nM tautomycin (myosin phosphatase inhibitor); control+10 ng/ml TGFβ1±50 nM tautomycin; control+10 ng/ml TGFβ2±50 nM tautomycin for a 48 hour experimental period. […]
FHL124 cells were seeded at 4 sites on a tissue culture dish at 5000 cells per site and maintained in EMEM supplemented with 5% FCS until confluent regions spanning approximately 5 mm developed. […] The cells were then washed in PBS and stained with Coomassie brilliant blue (a total protein dye) for 30 minutes to enable patches to be visualised and measured. […] Images of patches were captured on a CCD camera using GeneSnap and analysed using Scion image. After the patch area was measured, PBS medium was aspirated from the culture dish and replaced with 1 ml of 70% ethanol allowing Coomassie blue dye within the cells to be dissolved. […] A 200 μl sample of dye from each dish was placed in a clear plastic 96 well microtitre plate and the absorbance read at 550 nm using a plate reader. […]

Compound	TGF-β-induced matrix contraction (wrinkles) of the lens capsular bag (human lens capsular bags; 15 μM ML7, 10 ng/ml TGF-β)	cell coverage of the previously cell-free posterior capsule (human lens capsular bags; 15 μM ML7, 7 days of culture, EMEM + 5% serum + 10 ng/ml TGFβ, control group 100% cover) [%]	distribution of cell nuclei [1]	general organization of the cells [1]	αSMA levels versus control bags [1]	TGFβ-induced myosin activation (phosphorylated myosin) [2]	TGF-β-induced matrix contraction ([3]; 15 μM ML7, 72 hour, EMEM + 5% FCS)	TGF-β-induced matrix contraction ([3]; 50 nM tautomycin, 10 ng/ml TGFβ1 or TGFβ2, 48 hour)	TGF-β-induced matrix contraction ([3]; 50 nM tautomycin, 10 ng/ml TGFβ1 or TGFβ2, 48 hour, listed as Tautomycin)
O=S(=O)(c1cccc2c(I)cccc12)N1CCCNCC1 [ML7, (5-iodonaphthalene-1-sulfonyl)homopiperazine]	does not give rise to wrinkle formation; also recorded: can suppress TGF-β-induced matrix contraction	80	even distribution of cell nuclei	cobblestone appearance	similar	significantly inhibited TGFβ-induced myosin activation	significantly suppresses TGF-β-induced contraction; also recorded: significant reduction of TGF-β-induced contraction	–	–
CO[C@H]([C@H](O)CC(=O)[C@@H](C)[C@@H](O)CC[C@@H](C)[C@@H]1O[C@]2(CC[C@@H](C)[C@H](CC[C@H](C)C(C)=O)O2)CC[C@@H]1C)[C@H](OC(=O)C[C@@H](O)C1=C(C)C(=O)OC1=O)C(C)C [tautomycin]	–	–	–	–	–	–	–	speeded up the rate of contraction	significantly increases TGF-β-induced contraction
